Assay results from US10899754B2, “Modulators of indoleamine 2,3-dioxygenase” (GLAXOSMITHKLINE INTELLECTUAL PROPERTY DEVELOPMENT LIMITED, priority 2016, dated 2021).

Legend:
[1] = test system: human epithelial HeLa cells; assay: HeLa cytotoxicity assay (CellTiter-Glo); assay type: cell-based; conditions: pCC50
Method in brief: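 Read-out is CellTiter-Glo luminescence after 2 days at 37 °C, on IFN-γ-stimulated (10 nM) HeLa cells seeded at 5,000/well with compounds in 11-point 3-fold dose series. pCC50 from four-parameter curve fit; wells without cells set 100% cytotoxicity, stimulated cells with DMSO set 0%.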

ePL tagged IDO1 = biological target: T1, ePL tagged IDO1 (Homo sapiens, UniProt P14902); assay: CETSA (Cellular Thermal Shifting assay) in Hela cells; assay type: binding; conditions: BacMam ePL tagged IDO1, 3 hours at 37° C., heated at 53° C. for 3 min
T1 construct: expressed in transfected cells; host or cells: HeLa cells transduced with BacMam virus
T1 sequence (P14902 whole entry): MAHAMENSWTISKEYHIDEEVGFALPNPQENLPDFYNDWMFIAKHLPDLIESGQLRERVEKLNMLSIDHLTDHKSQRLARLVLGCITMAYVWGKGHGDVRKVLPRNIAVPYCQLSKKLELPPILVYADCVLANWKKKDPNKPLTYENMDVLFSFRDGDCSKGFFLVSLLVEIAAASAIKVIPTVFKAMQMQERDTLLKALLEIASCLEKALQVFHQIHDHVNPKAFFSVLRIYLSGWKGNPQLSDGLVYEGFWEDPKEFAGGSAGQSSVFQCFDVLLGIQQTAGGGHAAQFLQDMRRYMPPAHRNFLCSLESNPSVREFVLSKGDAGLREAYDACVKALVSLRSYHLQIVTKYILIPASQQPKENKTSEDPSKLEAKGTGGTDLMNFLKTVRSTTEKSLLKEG
Method: Cellular Thermal Shifting assays were used to directly monitor the ligand binding to target proteins in cells. Hela cells were transduced with BacMam virus expressing ePL tagged IDO1 overnight. The cells were then plated over the compounds for 3 hours at 37° C. in cell culture medium containing 1% FBS. The plates were then sealed and heated at 53° C. for 3 min. InCell Hunter reagents were added and luminescence was read in 90 min.

[2] = biological target: T2, indoleamine 2, 3-dioxygenase (IDO1) (Homo sapiens, UniProt P14902); assay: IDO1 HeLa RapidFire MS assay (kynurenine detection by mass spectrometry); assay type: cell-based; set-up: to induce the expression of indoleamine 2, 3-dioxygenase (IDO1); conditions: HeLa cells, pIC50, read-out: IDO1_HELA_PXC50 (converted)
T2 sequence (P14902 whole entry): as above
Method in brief: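 Compound potency reported as pIC50 from kynurenine/internal-standard ratio (RapidFire MS) in supernatant of IFN-γ-induced (10 nM) HeLa cells, 5,000 per well, after 2 days' treatment with 11-point dilutions. Cytotoxicity in the same format by luminescent ATP detection, reported as pCC50.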

naive CD4+CD25- T cells = conditions: co-culture with DCs; cited from earlier work
PAN02 pancreatic cells = conditions: orally dosed, cited from earlier work
[3] = test system: human peripheral blood mononuclear cells (PBMC); assay: PBMC cytotoxicity assay (CellTiter-Glo); assay type: cell-based; conditions: 2 days, pCC50
Method in brief: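 % cytotoxicity was taken from CellTiter-Glo luminescence, using wells without cells and stimulated DMSO wells as references, and fitted by four-parameter curve to give XC50. Cells were human PBMC at 50,000 per well, activated with 100 ng/ml IFN-γ plus 50 ng/ml LPS. Incubation with 11-point, 3-fold dilution series ran for 2 days at 37 °C.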

[4] = biological target: T2, indoleamine 2, 3-dioxygenase (IDO1); assay: IDO1 PBMC RapidFire MS assay (kynurenine detection by mass spectrometry); assay type: cell-based; set-up: to induce the expression of indoleamine 2, 3-dioxygenase (IDO1); host or cells: human PBMC stimulated with IFN-gamma and LPS; conditions: human PBMC stimulated with IFN-γ and LPS, 2 days, pIC50
Method in brief: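 Kynurenine output, read by RapidFire mass spectrometry as ratio to an internal standard, was measured after 2-day compound exposure (11-point, 3-fold dilutions) of human PBMCs induced with 100 ng/ml IFN-γ and 50 ng/ml LPS. Cell viability tracked alongside via ATP luminescence; XC50 from curve fitting.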

CC(C)CN(c1ccc(-c2ccccc2C(=O)NCCCCCN)cc1Nc1nc(C(F)(F)F)ns1)C1CCCCC1 [example 283, N-(5-aminopentyl)-4′-[cyclohexyl(2-methylpropyl)amino]-3′-{[3-(trifluoromethyl)-1,2,4-thiadiazol-5-yl]amino}-[1,1′-biphenyl]-2-carboxamide]
HELA_IDO1_TOX_PXC50 [1]: <5 | EC50 (ePL tagged IDO1; read-out: pXC50_1 (converted)): > 100 µM | IC50 [2]: 5.01 µM

NS(=O)(=O)NCCNc1nonc1C(=NO)Nc1ccc(F)c(Br)c1 [INCB204360, epacadostat]
Conversion of naive CD4+CD25- T cells into CD4+FoxP3+ Tregs (naive CD4+CD25- T cells): blocked the conversion | Inhibition of tumor growth (PAN02 pancreatic cells; PAN02 pancreatic cells, immunocompetent mice): significant dose-dependent inhibition of tumor growth | Effect against tumor (PAN02 pancreatic cells; same tumor (PAN02) implanted in immune-deficient mice): without effect

CC(C)CN(CC(C)C)c1ccc(C2(CC(=O)O)CC2)cc1Nc1nc(C(F)(F)F)ns1 [Example 110, 2-(1-(4-(diisobutylamino)-3-((3-(trifluoromethyl)-1,2,4-thiadiazol-5-yl)amino)phenyl)cyclopropyl)acetic Acid]
PBMC TOX PXC50 [3]: 5.2 | pXC50_1 (ePL tagged IDO1): 6.89 | pXC50_2 (ePL tagged IDO1): 6.86 | PBMC PXC50 [4]: 8.5
